Reference: US20240099298A1, “BIOINSECTICIDAL COMPOSITIONS CONTAINING MONOTERPENES AND METHODS OF USE THEREOF” (priority 2017, published 2024)
≈ marks a conversion by molar mass, not a printed value. Where “and” joins values, the source holds several entries; their conditions need not be identical. Equal entries are not always repeated. Where two headings read alike, the source gives them in different places.

Assays:
[1] = test system: housefly adults; conditions: cited from earlier work
[2] = test system: Drosophila melanogaster (fruit fly); assay: Median lethal concentration fumigation test, fruit fly; assay type: in vivo; conditions: mortality after 280 minutes
[3] = target: T1, recombinant gamma-aminobutyric acid receptor-associated protein (rGABARAP) (Frankliniella occidentalis, UniProt A0A6J1T1Q2); assay: Microscale thermophoresis (MST) binding to rGABARAP
Description: (§1) Preparation of recombinant GABARAP (rGABARAP) protein. RNA was extracted from F. occidentalis and cDNA was then synthesized. GABARAP (GenBank accession No. LOC113211372) was obtained after PCR amplification (Stafford-Banks, et al. (2014) Plos One 9:e94447).
(§2) Interaction between ME and rGABARAP. A Nano Temper Monolith NT.115 MST system (Nano Temper, Munich, Germany) was used to assess the binding affinities between the target compounds and rGABARAP according to the published procedures (Zan, et al. (2020) Journal of Agricultural and Food Chemistry 68:6280-6285). Spinosyn A was used as a chemical positive control. Spinosyn A (≥1 nM) can trigger a change of the Cl^− current of insect neuron GABAAR, which is considered to be an insecticidal action mechanism of spinosyn A (Watson (2001) Pesticide Biochemistry and Physiology 71:20-28). Ovalbumin (OVA) (Sangon Biotech, Shanghai, China) is a control protein consisting of 385 amino acid residues. The interaction between OVA and ME was used as a protein control experiment (Huntington, et al. (1995) Protein Science 4:613-621).

[4] = test system: Thrips Megalurothrips usitatus; conditions: 24-hour fumigation assay, 0-0.192 μL/dm^3
[5] = T 25 °C; cited from earlier work
[6] = test system: adult T. palmi; conditions: cited from earlier work
[7] = target: T1, recombinant gamma-aminobutyric acid receptor-associated protein (rGABARAP); assay: Isothermal titration calorimetry (ITC) binding to rGABARAP; conditions: 25° C., pH 7.4
Procedure: as §1
(§3) The isothermal titration thermal binding measurements were performed with an ITC-200 calorimeter (GE Healthcare, Boston, MA) at 25° C. in a buffer containing 50 mM Tris-HCl and 100 mM NaCl (pH 7.4). […] The MicroCal Origin 7.0 software system was used for data processing. The first run was a pre-run and was excluded from the final data. The amount of protein in the sample pool was constant. […] The experimental bimolecular interaction data from the 18 drops were used to calculate the dissociation constant. The dissociation constant […] was calculated as 1/K (Li, et al. (2018) RSC Advances 8:18952-18958).

[8] = target: T2, rGABARAP^Y174A (Frankliniella occidentalis, UniProt A0A6J1T1Q2); assay: MST binding to rGABARAP mutant; conditions: for Kd: read-out: Kd value, MST
Procedure: as §2
(§4) Preparation of rGABARAP Mutant and Interaction Between ME and rGABARAP Mutant. […] DNAman was used to convert the nucleic acid sequence into an amino acid sequence and find the Y174 site. Y174 was mutated to A174. The rGABARAP mutant gene loaded into the pMCSG19 vector and the His tags at both ends of the sequence were retained to construct a prokaryotic expression plasmid. The carrier contained a maltose binding protein (MBP) tag that was not cut for verification. However, MBP and ME were used as treatment controls. The mutant plasmid was constructed in Sangon Biotech (Shanghai, China). The protein expression, purification, and desalting procedures of rGABARAP^Y174A mutant and rGABARAP were the same. Subsequently, the binding kinetics of ME and rGABARAP^Y174A were tested by MST and ITC.

[9] = target: T2, rGABARAP^Y174A; assay: ITC binding to rGABARAP mutant
Procedure: as §3, §4

[10] = test system: Megalurothrips usitatus (Bagrall) (thrips); assay: Median lethal concentration fumigation test, thrips
Description: (§5) Median Lethal Concentration Tests. […] The species tested included Thrips (M. usitatus), spider mite (T. cinnabarinus), melon fly (B. cucuribitae), cockroach (B. lateralis), housefly (M. domestica), mosquito (A. aegypti), parasitic wasp (T. chilonis) and fruit fly (Drosophila melanogaster). After being exposed to the test chemicals for one hour, adult Thrips, spider mites, and roaches were transferred to another flask. In addition to fresh water, adult Thrips, spider mites, and roaches were then respectively fed with cowpea, fresh blade of eggplant, and peanut oil via filter. […] Mortality of melon fly was observed after three hours of exposure.

[11] = test system: Aedes aegypti (Linnaeus) (mosquito)
Description: as §5

[12] = test system: Bactrocera cucuribitae (Coquillett) (melon fly)
Description: as §5

[13] = test system: Blatta lateralis (Walker) (cockroach)
Description: as §5

[14] = test system: Musca domestica (Linnaeus) (housefly)
Description: as §5

[15] = test system: Tetranychus cinnabarinus (Boisduval) (spider mites)
Description: as §5

[16] = test system: B. cucuribitae (melon fly); assay: Median lethal time (LT50) test, melon fly; assay type: in vivo, Bactrocera cucuribitae
Description: (§6) All treatments and controls were in triplicate.
(§7) Toxicity of Monoterpenes as Fumigants. […] Therefore, to determine how fast the monoterpenes act as fumigants, it was necessary to determine their LT50 values for the target organisms.

[17] = test system: T. castaneum (red flour beetle); assay: Median lethal time (LT50) test, red flour beetle; assay type: in vivo, Tribolium castaneum
Description: as §6, §7

[18] = test system: H. picinus (Nitidulid beetle); assay: Median lethal time (LT50) test, Nitidulid beetle; assay type: in vivo, Haptoncus picinus
Description: as §6, §7

[19] = test system: Aedes aegypti (mosquito); assay: Median knockdown concentration (KC50) test, mosquito; assay type: in vivo
Description: as §6
(§8) Knockdown Activity of Monoterpenes.

[20] = test system: Musca domestica (housefly); assay: Median knockdown concentration (KC50) test, housefly; assay type: in vivo; conditions: Musca domestica
Description: as §6, §8

[21] = test system: T. chilonis (parasitic wasp); conditions: non-target parasitic wasp, mortality after 15 minutes of exposure
Description: (§9) Insect Egg Parasitic Wasp (Natural Enemy). […] Both species were purchased from a commercial source. One- to two-day-old adults (after eclosion) were used for fumigation tests.
as §5

[22] = test system: A. japonicus (parasitic wasp); assay: Median lethal time (LT50) test, parasitic wasp (natural enemy)
Procedure: as §9
Median Lethal Time (LT50) and Median Knockdown Concentration (KC50) Tests. Five species of adult insects or natural enemies were tested for LT50 values including melon fly (B. cucuribitae), red flour beetle (T. castaneum), Nitidulidae beetle (H. picinus), parasitic wasp (A. japonicus) and housefly (M. domestica). For each treatment and control, 20 insects at the developmental stages described above were placed individually without food in a 1-L wide-mouth glass bottle (height 19.5 cm, bottom diameter 10.5 cm, mouth i.d. 5.5 cm) containing pieces of tissue paper. […] Five different concentrations of the test chemicals were placed on pieces of cellulose-based qualitative filter paper. Each of the filter papers was placed in a bottle to have 5 appropriate concentrations in serial dilutions. DDVP was the positive control, and no chemical treatments were the negative control. All treatments and controls were in triplicate. Mortality was observed periodically in a 10-30 minute interval for 2 days or until all insects died. The death was defined as no movement when the insects were touched.

[23] = test system: honeybee Apis mellifera; assay: 24-hour fumigation assay on honeybee; conditions: for Mortality ± STD: 60 bees; for toxicity to honeybee (in words): 24-hour fumigation
Description: Experiments were done with 20 bees per group in triplicate.
Activity of Monoterpenes Against Honeybees. The honeybee (Apis mellifera) is the most frequent floral visitor of crops worldwide.

[24] = test system: Megalurothrips usitatus (flower Thrips); conditions: adult M. usitatus, 24 hours of fumigation in 1-L flasks
[25] = test system: Frankliniella occidentalis second-instar nymphs; assay: whole plant or invertebrate; conditions: 24 h
Procedure: Chemicals. […] These monoterpenes and the positive control spinosyn A (Bosite Technology, Chongqing, China) were dissolved in acetone (10 g/L).
Insects. F. occidentalis Thrips were provided by the Institute of Vegetables and Flowers, Chinese Academy of Agricultural Sciences (Beijing, China), and kept in a box (19 cm×14 cm×20 cm) at 27±1° C., humidity of 50%-60% and a photoperiod of 16:8 h (light:dark). The population was established with sword beans (Canavalia gladiata). Second-instar nymphs with the same growth were tested.
Insect Assays. […] The leaf blade (2 cm×3 cm) was immersed in the solution for 10 s in the test solution, and then air-dried until there were no water drops on the surface. The concentrations were the same as those used in the insecticide-impregnated membrane method. After the chemical film had been formed for 2 h, the infusion leaves were placed in the bottles. The second-instar nymphs were picked with a soft writing brush to make up ten insects per bottle. The bottles were sealed with plastic wrap. 1% Triton X-100 (m/V) aqueous solution as a blank control. Each treatment was repeated four times. The bottles were placed under temperature of 27±1° C., humidity of 50%-60% and photoperiod of 16:8 h (light:dark). […] The insects were touched with a soft brush and numbers of dead and living Thrips were recorded, followed by calculation of the mortality rates.

[26] = rGABARAP, read-out: Kd value, MST
[27] = adult thrips, exposed one hour, mortality observed in 24 hours

T2 sequence (A0A6J1T1Q2 entry or part of it, stated change not applied): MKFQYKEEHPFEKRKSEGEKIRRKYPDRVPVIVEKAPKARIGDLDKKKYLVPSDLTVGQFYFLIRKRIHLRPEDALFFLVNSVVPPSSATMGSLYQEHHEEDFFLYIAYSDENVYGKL
T1 sequence (A0A6J1T1Q2 1-118): as the sequence (A0A6J1T1Q2 entry or part of it, stated change not applied) above

CC1CCC(C(C)C)C(O)C1 (centres unmarked) [menthol]
repellent activity [1]: 96%

CC(C)=C1CC[C@H](C)CC1=O [(−)-Pulegone]
LC50 (fiducial limits) [2]: 0.106 ng/mL (≈ 0.000696 µM) | LC90 (fiducial limits) [2]: 0.000359 µg/mL (≈ 0.00236 µM) | Kd [3, 26]: 2.53 µM | LC50 [4]: 0.119 μL/dm^3 | Vp (Pa)/T (° C.) [5]: 16.3/25 Pa | LC50, fumigation toxicity [6]: 9.5 µg/mL (≈ 62.4 µM)

C/C=C/c1ccc(OC)cc1 [Anethole, 1-(4-methoxyphenyl) -1-propen]
Kd [3, 26]: 1.61 µM | Kd [7]: 4.49 µM | Kd [8]: 41 ± 36.4 µM | Kd value, ITC [9]: No binding

CC(C)[C@@H]1CC[C@@H](C)CC1=O [menthone]
repellent activity [1]: 83%

CC(C)=C1CC[C@@H](C)CC1=O [(+)-Pulegone]
LC50 (fiducial limits) [10, 27]: 0.20 µg/mL (≈ 1.31 µM) | LC90 (fiducial limits) [10, 27]: 0.67 µg/mL (≈ 4.4 µM) | LC50 (fiducial limits) ([10]; adult thrips, exposed one hour, mortality observed in 24 hours, listed as (+)-pulegone): 0.196 µg/mL (≈ 1.29 µM) | activity fold greater (smaller LC50) than positive control DDVP ([10]; thrips): 3.5 fold | LC90 (fiducial limits) ([11]; adult mosquito, exposed 30 minutes, mortality in 24 hours): 16.8 µg/mL (≈ 110 µM) | LC50 (fiducial limits) ([11]; in vivo): 10.3 µg/mL (≈ 67.7 µM) | LC50 (fiducial limits) ([12]; in vivo): 112 µg/mL (≈ 736 µM) | LC90 (fiducial limits) ([12]; melon fly): 657 µg/mL (≈ 4320 µM) | LC90 (fiducial limits) ([13]; cockroach second instar nymphs, exposed one hour): 173 µg/mL (≈ 1140 µM) | LC50 (fiducial limits) ([13]; in vivo): 15.0 µg/mL (≈ 98.5 µM) | LC90 (fiducial limits) ([14]; adult housefly, exposed one hour, mortality in 24 hours): 11.9 µg/mL (≈ 78.2 µM) | LC50 (fiducial limits) ([14]; in vivo): 7.38 µg/mL (≈ 48.5 µM) | LC50 (fiducial limits) ([15]; in vivo): 2.52 µg/mL (≈ 16.6 µM) | LC90 (fiducial limits) ([15]; spider mites, exposed one hour): 40.8 µg/mL (≈ 268 µM) | LC50 (fiducial limits) [2]: 0.043 ng/mL (≈ 0.000282 µM) | LC90 (fiducial limits) [2]: 0.00014 µg/mL (≈ 0.00092 µM) | LT50 (fiducial limits) [16]: 0.87 h | fold faster action relative to the other five monoterpenes (LT50) [16]: at least 1.9 fold | LT50 (fiducial limits) [17]: 3.47 h | LT50 (fiducial limits) [18]: 0.50 h | fold faster action relative to the other five monoterpenes (LT50) [18]: ≥ 1.2 fold | LT50 (fiducial limits) ([18]; listed as (+)-pulegone): 0.500 h | KC50 (fiducial limits) ([19]; 10 Minutes): 19.6(8.41-35.5) μg/cm^3 | KC50 (fiducial limits) ([19]; 20 Minutes): 1.40 µg/mL | KC50 (fiducial limits) ([19]; 30 Minutes): 1.4 µg/mL | KC50 (fiducial limits) ([20]; 20 Minutes): >243 µg/mL | KC50 (fiducial limits) ([20]; 30 Minutes): 12.2 µg/mL | LC50 (fiducial limits) against T. chilonis [21]: 2.02 µg/mL and 2.06 µg/mL | LC90 (fiducial limits) against T. chilonis [21]: 12.1 µg/mL (≈ 79.5 µM) | LT50 fold greater than that of DDVP ([22]; A. japonicus): approximately 1.2 fold | LT50 (fiducial limits) against A. japonicus ([22]; non-target parasitic wasp): 0.47 (0.00-0.68) hour | Mortality ± STD ([23]; 0.012 μL/dm^3, 24-hour fumigation): 5.0 ± 8.7% | Mortality ± STD ([23]; 0.024 μL/dm^3, 24-hour fumigation): 3.3 ± 5.8% | Mortality ± STD ([23]; 0.048 μL/dm^3, 24-hour fumigation): 5.0 ± 5.0% | Mortality ± STD ([23]; 0.096 μL/dm^3, 24-hour fumigation): 5.0 ± 5.0% | Mortality ± STD ([23]; 0.192 μL/dm^3, 24-hour fumigation): 8.3 ± 7.6% | mortality relative to no chemical control ([23]; 0.2 μL/dm^3, 24-hour fumigation): 3% | toxicity to honeybee (in words) [23]: little lethal toxicity | toxicity to honeybee (in words) ([23]; listed as (+)-pulegone): failed to have a negative impact | Kd [3, 26]: 1.72 µM | activity against flower Thrips in preliminary screening [24]: exhibit insecticidal activity | LC50 [4]: 0.079 μL/dm^3 | Vp (Pa)/T (° C.) [5]: 16.3/25 Pa

COc1cccc2c1cc([N+](=O)[O-])c1c(C(=O)O)cc3c(c12)OCO3 [Aristolochic acid A, 3,4-methylenedioxy-8-methoxy-10-nitro-1-phenanthrenecarboxylicacid, reference compound]
LC50 [25]: 40 µg/mL (≈ 117 µM) | Kd [3]: 146 µM | Kd value, ITC [7]: no binding | Kd [8]: 158 ± 82 µM | Kd value, ITC [9]: No binding

C=CCc1ccc(OC)c(OC)c1 [Eugenol methyl ether, 1-(3,4-dimethoxyphenyl) -2-propene]
Kd [3, 26]: 1.3 µM | Kd [7]: 4.22 µM | Kd value, MST [8]: loss of binding | Kd value, ITC [9]: neither MBP nor ME interacted | activity against flower Thrips in preliminary screening [24]: exhibit insecticidal activity
